Measurements reported in patent publication US7417156B2, “Orally active, antimalarial, anticancer, artemisinin-derived trioxane dimers” (Johns Hopkins University, priority 2002, dated 2008).

How the values were obtained:
BT-549 = assay: NCI 60 cell line panel screen (SRB); format: cell-based, human; settings: for Log10LC50 / Log10TGI50: BT-549 (Breast Cancer); for Log10LC50: LC50: PG=−50; for Log10TGI50: TGI: PG=0; for Log10GI50: Breast Cancer, BT-549
UACC-62 = assay: NCI 60 cell line panel screen (SRB); format: cell-based, human
SW-620 = assay: NCI 60 cell line panel screen (SRB); format: cell-based, human
ACHN = assay: NCI 60 cell line panel screen (SRB); format: cell-based, human; settings: ACHN (Renal Cancer)
SR = assay: NCI 60 cell line panel screen (SRB); format: cell-based, human; settings: SR (Leukemia)
MDA-N = assay: NCI 60 cell line panel screen (SRB); format: cell-based, human; settings: Breast Cancer, MDA-N
HCC-2998 = assay: NCI 60 cell line panel screen (SRB); format: cell-based, human
A498 = assay: NCI 60 cell line panel screen (SRB); format: cell-based, human
HOP-62 = assay: NCI 60 cell line panel screen (SRB); format: cell-based, human; settings: for Log10LC50 / Log10TGI50: HOP-62 (Non-Small Cell Lung Cancer); for Log10LC50: LC50: PG=−50; for Log10TGI50: TGI: PG=0; for Log10GI50: Non-Small Cell Lung Cancer, HOP-62
DU-145 = assay: NCI 60 cell line panel screen (SRB); format: cell-based, human
SN12C = assay: NCI 60 cell line panel screen (SRB); format: cell-based, human
LOX IMVI = assay: NCI 60 cell line panel screen (SRB); format: cell-based, human
SNB-19 = assay: NCI 60 cell line panel screen (SRB); format: cell-based, human; settings: for Log10GI50: CNS Cancer, SNB-19; for Log10LC50 / Log10TGI50: SNB-19 (CNS Cancer); for Log10LC50: LC50: PG=−50; for Log10TGI50: TGI: PG=0
OVCAR-4 = assay: NCI 60 cell line panel screen (SRB); format: cell-based, human
SK-OV-3 = assay: NCI 60 cell line panel screen (SRB); format: cell-based, human
NCI-H226 = assay: NCI 60 cell line panel screen (SRB); format: cell-based, human
[1] = tested on: P. berghei NY malaria parasite; assay: Antimalarial efficacies in vivo in mice
From the text: Neither overt toxicity nor behavioral modification was observed due to drug administration in any of these mouse experiments.

CC(=O)O[C@H]1C(=O)[C@@]2(C)[C@H]([C@H](OC(=O)c3ccccc3)[C@]3(O)C[C@H](OC(=O)[C@H](O)[C@@H](NC(=O)c4ccccc4)c4ccccc4)C(C)=C1C3(C)C)[C@]1(OC(C)=O)CO[C@@H]1C[C@@H]2O [Paclitaxel, paclitaxel, reference compound]
Log10LC50 (BT-549): >−4.00 log10M | Log10TGI50 (BT-549): −6.32 log10M | Log10GI50 (BT-549): −9.31 | Log10GI50 (UACC-62; Melanoma, UACC-62): −10.46 | Log10LC50 (UACC-62; UACC-62 (Melanoma), LC50: PG=−50): −4.19 log10M | Log10TGI50 (UACC-62; UACC-62 (Melanoma), TGI: PG=0): −4.71 log10M | Log10GI50 (SW-620; Colon Cancer, SW-620): −11.60 | Log10LC50 (SW-620; SW-620 (Colon Cancer), LC50: PG=−50): >−4.00 log10M | Log10TGI50 (SW-620; SW-620 (Colon Cancer), TGI: PG=0): >−4.00 log10M | Log10LC50 (ACHN; LC50: PG=−50): −4.45 log10M | Log10TGI50 (ACHN; TGI: PG=0): −4.90 log10M | Log10LC50 (SR; LC50: PG=−50): >−4.00 log10M | Log10TGI50 (SR; TGI: PG=0): >−4.00 log10M | Log10GI50 (MDA-N): <−13.00 | Log10GI50 (HCC-2998; Colon Cancer, HCC-2998): −12.34 | Log10LC50 (HCC-2998; HCC-2998 (Colon Cancer), LC50: PG=−50): −4.26 log10M | Log10TGI50 (HCC-2998; HCC-2998 (Colon Cancer), TGI: PG=0): −4.77 log10M | Log10LC50 (A498; A498 (Renal Cancer), LC50: PG=−50): −4.13 log10M | Log10GI50 (A498; Renal Cancer, A498): −7.14 | Log10LC50 (HOP-62): −4.10 log10M | Log10TGI50 (HOP-62): −4.80 log10M | Log10GI50 (HOP-62): −9.67 | Log10LC50 (DU-145; DU-145 (Prostate Cancer), LC50: PG=−50): >−4.00 log10M | Log10TGI50 (DU-145; DU-145 (Prostate Cancer), TGI: PG=0): >−4.00 log10M | Log10GI50 (DU-145; Prostate Cancer, DU-145): −9.38 | Log10GI50 (SN12C; Renal Cancer, SN12C): −9.53 | Log10LC50 (SN12C; SN12C (Renal Cancer), LC50: PG=−50): >−4.00 log10M | Log10LC50 (LOX IMVI; LOX IMVI (Melanoma), LC50: PG=−50): >−4.15 log10M | Log10TGI50 (LOX IMVI; LOX IMVI (Melanoma), TGI: PG=0): −4.65 log10M | Log10GI50 (LOX IMVI; Melanoma, LOX IMVI): −11.80 | Log10GI50 (SNB-19): −8.98 | Log10LC50 (SNB-19): >−4.00 log10M | Log10TGI50 (SNB-19): >−4.00 log10M | Log10LC50 (OVCAR-4; OVCAR-4 (Ovarian Cancer), LC50: PG=−50): >−4.00 log10M | Log10TGI50 (OVCAR-4; OVCAR-4 (Ovarian Cancer), TGI: PG=0): −4.19 log10M | Log10GI50 (OVCAR-4; Ovarian Cancer, OVCAR-4): −5.00

CC1CCC2C(C)C(CC(COC(=O)CCC(=O)O)CC3OC4OC5(C)CCC6C(C)CCC(C3C)C46OO5)OC3OC4(C)CCC1C32OO4 (stereo not shown) [Compound 8a, bis-trioxane primary succinate monoester]
Log10LC50 (BT-549): >−4.30 log10M | Log10TGI50 (BT-549): −7.39 log10M | Log10GI50 (BT-549): −7.91 | Log10GI50 (SK-OV-3; Ovarian Cancer, SK-OV-3): −4.89 | Log10LC50 (SK-OV-3; SK-OV-3 (Ovarian Cancer), LC50: PG=−50): >−4.30 log10M | Log10TGI50 (SK-OV-3; SK-OV-3 (Ovarian Cancer), TGI: PG=0): >−4.30 log10M | Log10GI50 (MDA-N): −7.29 | Log10LC50 (HOP-62): >−4.30 log10M | Log10TGI50 (HOP-62): >−4.30 log10M | Log10GI50 (HOP-62): −6.34 | Log10LC50 (NCI-H226; NCI-H226 (Non-Small Cell Lung Cancer), LC50: PG=−50): >−4.30 log10M | Log10TGI50 (NCI-H226; NCI-H226 (Non-Small Cell Lung Cancer), TGI: PG=0): −6.67 log10M | Log10GI50 (NCI-H226; Non-Small Cell Lung Cancer, NCI-H226): <−8.30 | ED50 ([1]; route IV): 2.2 mg/kg × 4 | ED90 ([1]; route IV): 6.3 mg/kg × 4 | % Parasite Supression at 10 mg/kg ([1]; route IV): 81.0% | ED50 ([1]; route PO): 9.0 mg/kg × 4 | ED90 ([1]; route PO): 15.0 mg/kg × 4 | % Parasite Supression at 10 mg/kg ([1]; route PO): 79.2% | Log10GI50 (SNB-19): −5.62 | Log10LC50 (SNB-19): >−4.30 log10M | Log10TGI50 (SNB-19): >−4.30 log10M
